According to PMC10042540, “Targeting oncogenic KRasG13C with nucleotide-based covalent inhibitors” (eLife, 2023):

Experiments:
[1] = system: SOS; assay: Guanine nucleotide-exchange factor assay (mantdGDP fluorescence); format: biochemical
Description: SOS-catalysed nucleotide exchange was monitored at 25 °C in a FluoroMax-3 spectrofluorometer (excitation at 360 nm, emission at 440 nm) in 20 mM HEPES (pH 7.5), 100 mM NaCl, 2 mM MgCl2, and 1 mM TCEP. 5 µM KRas1-169 was mixed with 10 µM mantdGDP and subsequently with different concentrations of SOS (0.25 µM and 0.5 µM) (Figure 3A; Figure 3—figure supplement 1).

[2] = system: farnesyltransferase (FTase); assay: In vitro farnesylation; format: biochemical; conditions: full-length protein, FPP, ESI-MS
Description: 50 µM of full-length KRas protein was mixed with 250 µM farnesyl pyrophosphate (FPP) and 10 µM farnesyltransferase (FTase). After incubation at room temperature for 1 hr the mixture was centrifugated at 14,000 rpm for 10 min at 4 °C and analyzed via ESI-MS (Figure 3—figure supplement 4).

[3] = system: pErkT202/Y204; assay: Electroporation into HeLa cells, western blot quantification; format: cell-based, human; conditions: for pErk mean fold change: mean of cell lysates
Description: (§1) HeLa cells were obtained from the American Type Culture Collection (ATCC) and were cultured in DMEM medium (Gibco) supplemented with 10% fetal bovine serum (FBS) (PAN-Biotech) and 1% penicillin/streptomycin (Gibco). Cells were cultured in a humidified incubator at 37 °C in the presence of 5% CO2. The identity of the cells was validated by STR profiling and the cells were tested negative for mycoplasma contamination.
(§2) Electroporation of full-length KRas constructs (KRasWT, KRasG13C, KRasG13C-edaGDP, KRasG13C:acetyledaGDP and KRasG13C-edaGppCp) was performed based on the protocol described by [Alex et al., 2019] using the Neon Transfection System Kit (Thermo Fisher). For electroporation, 3 million cells per experiment were harvested by trypsinization, washed with PBS, and resuspended in 85 µL of the electroporation buffer R (Thermo Fisher). Increasing amounts of recombinant protein samples for each construct (0, 50, 100, 200 and 300 µg) were diluted 1:1 in buffer R followed by the addition of 30 µL of this protein master mix to the cell suspension. This cellular slurry was loaded into a […] Neon Pipette Tip (Thermo Fisher) and electroporated with 2x35 ms pulses at 1000 V. After electroporation, the cells were washed twice with PBS (15 mL) to remove non-internalized extracellular protein and the cell pellet was resuspended in 2 mL complete growth media. Cells were transferred into six-well tissue culture plates (Sarstedt) and incubated for 24 hr at 37 °C and 5% CO2 in a humidified incubator for recovery before being processed for western blotting analysis.
(§3) After recovery of the electroporation, cells were washed twice with ice-cold PBS and lysed in 100 µL of phosphatase and protease inhibitor containing RIPA buffer (Cell Signaling Technology). Cells were incubated on ice for 30 min and then harvested by scraping followed by centrifugation at 14,000 rpm for 10 min at 4 °C. Protein concentrations were determined using the Pierce BCA protein assay (Thermo) following the manufacturer’s recommended procedure. Equal amounts of protein (10 µg) were analyzed by SDS-PAGE and transferred to Immobilon-FL PVDF membranes (Merck Millipore) using Pierce 1-step transfer buffer (Thermo) and the Pierce Power Blotter (Thermo). Membranes were washed with ddH2O for 5 min, blocked with OdysseyBlocking Buffer TBS (Li-Cor) for 1 hr at room temperature and then incubated with primary antibodies diluted in OdysseyBlocking Buffer TBS overnight at 4 °C with gentle agitation. KRas (Sigma Aldrich, SAB1404011-100UG), pcRafS338 (CST, 9427), tAkt1 (CST, 2938), pAktS473 (CST, 4060), tErk (CST, 4696), pErkT202/Y204 (CST, 4370), pS6S235/236 (CST, 4858), and β-actin (CST, 4970/Sigma-Aldrich, A5441) antibodies were used to detect the individual proteins. After primary antibody incubation, membranes were washed three times with TBS-T (50 mM Tris, 150 mM NaCl, 0.05% Tween 20, pH 7.4) for 5 min before being incubated with secondary antibodies (anti-mouse IgG (H+L) (DyLight 680 Conjugate) (CST, 5470) / anti-rabbit IgG (H+L) (DyLight 800 4 X PEG Conjugate) (CST, 5151)) diluted in OdysseyBlocking Buffer TBS for 1 hr at room temperature with gentle agitation. After secondary antibody incubation, the membranes were washed three times for 5 min with TBS-T and then scanned using an OdysseyCLx imaging system (Li-Cor). Quantification of protein levels from western blots was performed using Empiria Studio (Li-Cor) (Figure 3B, C, Figure 3—figure supplements 6–9).

[4] = system: pS6S235/236; assay: as above; format: cell-based, human; conditions: for pS6 mean fold change: mean of cell lysates
Description: as §1, §2, §3

[5] = system: pcRafS338; assay: as above; format: cell-based, human; conditions: for pcRaf mean fold change: mean of cell lysates
Description: as §1, §2, §3

KRasG13C-edaGDP: KRasG13C covalently locked with edaGDP at Cys13
SOS-catalysed nucleotide exchange ([1]; 5 µM KRas1-169, 10 µM mantdGDP, 0.25 or 0.5 µM SOS): unable to do so
intrinsic nucleotide exchange rate ([1]; absence of SOS): abrogated
in vitro farnesylation [2]: fully farnesylated
pErk fold change ([3]; 50 µg, Cell lysate 1): 0.82
pErk fold change ([3]; 50 µg, Cell lysate 2): 0.70
pErk fold change ([3]; 50 µg, Cell lysate 3): 0.80
pErk mean fold change ([3]; 50 µg): 0.77
pErk fold change ([3]; 100 µg, Cell lysate 1): 1.10
pErk fold change ([3]; 100 µg, Cell lysate 2): 0.77
pErk fold change ([3]; 100 µg, Cell lysate 3): 0.86
pErk mean fold change ([3]; 100 µg): 0.91
pErk fold change ([3]; 200 µg, Cell lysate 1): 2.08
pErk fold change ([3]; 200 µg, Cell lysate 2): 0.84
pErk fold change ([3]; 200 µg, Cell lysate 3): 1.10
pErk mean fold change ([3]; 200 µg): 1.34
pErk fold change ([3]; 300 µg, Cell lysate 1): 2.38
pErk fold change ([3]; 300 µg, Cell lysate 2): 0.86
pErk fold change ([3]; 300 µg, Cell lysate 3): 1.58
pErk mean fold change ([3]; 300 µg): 1.61
pS6 fold change ([4]; 50 µg, Cell lysate 1): 0.80
pS6 fold change ([4]; 50 µg, Cell lysate 2): 1.31
pS6 fold change ([4]; 50 µg, Cell lysate 3): 0.76
pS6 mean fold change ([4]; 50 µg): 0.96
pS6 fold change ([4]; 100 µg, Cell lysate 1): 0.91
pS6 fold change ([4]; 100 µg, Cell lysate 2): 1.13
pS6 fold change ([4]; 100 µg, Cell lysate 3): 0.75
pS6 mean fold change ([4]; 100 µg): 0.93
pS6 fold change ([4]; 200 µg, Cell lysate 1): 1.23
pS6 fold change ([4]; 200 µg, Cell lysate 2): 1.03
pS6 fold change ([4]; 200 µg, Cell lysate 3): 0.88
pS6 mean fold change ([4]; 200 µg): 1.05
pS6 fold change ([4]; 300 µg, Cell lysate 1): 0.98
pS6 fold change ([4]; 300 µg, Cell lysate 2): 0.98
pS6 fold change ([4]; 300 µg, Cell lysate 3): 0.76
pS6 mean fold change ([4]; 300 µg): 0.91
pcRaf fold change ([5]; 50 µg, Cell lysate 1): 0.75
pcRaf fold change ([5]; 50 µg, Cell lysate 2): 1.33
pcRaf fold change ([5]; 50 µg, Cell lysate 3): 0.84
pcRaf mean fold change ([5]; 50 µg): 0.97
pcRaf fold change ([5]; 100 µg, Cell lysate 1): 0.89
pcRaf fold change ([5]; 100 µg, Cell lysate 2): 0.78
pcRaf fold change ([5]; 100 µg, Cell lysate 3): 1.40
pcRaf mean fold change ([5]; 100 µg): 1.02
pcRaf fold change ([5]; 200 µg, Cell lysate 1): 0.74
pcRaf fold change ([5]; 200 µg, Cell lysate 2): 0.88
pcRaf fold change ([5]; 200 µg, Cell lysate 3): 1.21
pcRaf mean fold change ([5]; 200 µg): 0.94
pcRaf fold change ([5]; 300 µg, Cell lysate 1): 0.57
pcRaf fold change ([5]; 300 µg, Cell lysate 2): 0.97
pcRaf fold change ([5]; 300 µg, Cell lysate 3): 1.13
pcRaf mean fold change ([5]; 300 µg): 0.89
